Measurements taken from PMC3477264 (ACS chemical biology, 2012).

What was measured:
[1] = molecular target: T1, cyclodiphosphate synthase IspF (Escherichia coli, UniProt P62617); test: HPLC-based assay of CMP formation by purified IspF; assay type: biochemical
T1 sequence (P62617 1-159): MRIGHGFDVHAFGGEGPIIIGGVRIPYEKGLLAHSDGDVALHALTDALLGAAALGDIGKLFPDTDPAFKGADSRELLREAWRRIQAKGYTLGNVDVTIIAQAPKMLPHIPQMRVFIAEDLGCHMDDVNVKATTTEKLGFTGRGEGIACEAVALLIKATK

[2] = molecular target: T1, cyclodiphosphate synthase IspF; test: HPLC-based assay, […] inhibition of the IspF-MEP complex at […] FDP; assay type: biochemical; details: read-out: % inhibition at 500 μM

Row | Compound | AC50 [1] [µM] | inhibition at 500 µM [2] [%]
1 | C[C@](O)(CO)[C@H](O)COP(=O)(O)O [MEP, 2C-methyl-D-erythritol 4-phosphate] | 133 ± 33 | 
2 | C[C@](O)(CO)[C@H](O)CO [ME, 2C-methyl-D-erythritol] | 106 ± 14 | 
3 | CC(C)=CCC/C(C)=C/CC/C(C)=C/CO[P@@](=O)(O)OP(=O)(O)O (stereo in doubt) [FDP, farnesyl diphosphate] |  | 43
